In PMC6305410, “High-Throughput Screening for Bacterial Glycosyltransferase Inhibitors” (Frontiers in Cellular and Infection Microbiology, 2018):

Target: T1, NleB1 (Escherichia coli, UniProt Q8XBX8)
T1 construct: GST-EHEC-NleB1 in pET42a (GST/His tagged), expressed in E. coli BL21 (DE3), nickel purified; some tag cleavage noted
Settings: inhibitor; for % NleB1 inhibition (µM compound) / 10: 10 µM; for % NleB1 inhibition (µM compound) / 20: 20 µM; for % NleB1 inhibition (µM compound) / 40: 40 µM; for % NleB1 inhibition (µM compound) / 80: 80 µM; for % NleB1 inhibition (µM compound) / 160: 160 µM

| Compound | % NleB1 inhibition (µM compound) / 10 [%] | % NleB1 inhibition (µM compound) / 20 [%] | % NleB1 inhibition (µM compound) / 40 [%] | % NleB1 inhibition (µM compound) / 80 [%] | % NleB1 inhibition (µM compound) / 160 [%] |
| --- | --- | --- | --- | --- | --- |
| CCCCCC(=O)N1C[C@H](n2cc(COC(=O)c3ccccc3)nn2)[C@@H](O)C[C@@H]1c1ccc(Cl)cc1 [KUC105040N] | 9.1 | 14.5 | 18.9 | 40.4 | 50.7 |
| COCOCCn1cc(CN2CCS(=O)(=O)N(Cc3ccc(-c4ccc(OC)nc4)cc3)C(C(C)C)C2=O)nn1 (centres unmarked) [KUC105133N] | 30.4 | 40.4 | 45.5 | 62.2 | 75.8 |
| COc1ccc(-c2ccc(CN3C(C(C)C)C(=O)N(Cc4cn(CCC5OCCO5)nn4)CCS3(=O)=O)cc2)cn1 (centres unmarked) [KUC105137N] | 13.7 | 25.7 | 41.5 | 64.5 | 79.7 |
| COCOCCn1cc(CN2CCS(=O)(=O)N(Cc3ccc(-c4ccc(F)nc4)cc3)C(CC(C)C)C2=O)nn1 (centres unmarked) [KUC105149N] | 34.4 | 38.8 | 42.6 | 55.9 | 69.5 |
| CC(C)CC1C(=O)N(Cc2cn(CCC3OCCCO3)nn2)CCS(=O)(=O)N1Cc1ccc(-c2ccc(F)nc2)cc1 (centres unmarked) [KUC105151N] | 0.6 | 15.1 | 31.9 | 50.8 | 53.0 |
| CCCCN1CC(COCc2ccccc2)Oc2cccc(Oc3ccc(F)cc3OC)c2S1(=O)=O (centres unmarked) [KUC106008N] | 21.4 | 22.4 | 20.7 | 31.6 | 55.9 |
| O=C(c1ccc([N+](=O)[O-])cc1)N1[C@H](COCc2ccccc2)C=CS1(=O)=O [KUC107029N] | 30.6 | 41.5 | 43.4 | 48.6 | 43.4 |
| CN(C)CCN1CCN(C2CN(Cc3cn(Cc4ccc(F)cc4)nn3)S(=O)(=O)C2)CC1 (centres unmarked) [KUC108117N] | 5.6 | 23.7 | 25.1 | 21.8 | 21.8 |
| CN1CCC(N2CCN(C3CN(Cc4cn(Cc5cccc(Cl)c5)nn4)S(=O)(=O)C3)CC2)CC1 (centres unmarked) [KUC108133N] | 4.1 | 18.2 | 22.3 | 18.0 | 18.2 |
| O=S1(=O)CC(N2CCN(Cc3ccccc3F)CC2)CN1Cc1cn(Cc2cccc(Cl)c2)nn1 (centres unmarked) [KUC108236N] | 13.5 | 26.7 | 13.1 | 12.7 | 18.4 |
| C[C@H](c1ccccc1)N1C[C@@H](COCc2ccccc2)Oc2cc(N3CC[C@@H](O)C3)ccc2S1(=O)=O [KUC108511N] | 33.8 | 33.0 | 29.9 | 49.8 | 63.7 |
| Cc1ccc2c(c1)C1CS(=O)(=O)N(C3CCCC3)C(=O)N1C2 (centres unmarked) [KUC109525N] | 26.3 | 31.5 | 20.9 | 19.5 | 29.3 |
| COC(=O)[C@H](C(C)C)N1Cc2nnn(Cc3ccccc3)c2-c2ccccc2S1(=O)=O [KUC110604N] | 4.8 | 15.1 | 17.9 | 21.1 | 17.9 |
| C[C@H]1CC[C@]2(CCC(=O)N2CCCOC(=O)c2ccccc2)CC1 [KUC110967N] | 45.2 | 53.8 | 62.0 | 71.4 | 78.5 |
| Cc1ccc([C@H]2CC[C@]3(CCC(=O)N3CCOC(=O)Nc3cccc(C#N)c3)CC2)cc1 [KUC111012N] | 17.3 | 25.1 | 22.4 | 20.7 | 20.5 |
| C[C@@H]1CCCN1c1ccc2c(c1)O[C@@H]1CCN(C1)S2(=O)=O [KUC111139N] | 32.7 | 34.1 | 35.7 | 38.7 | 40.7 |
| O=C(c1ccc(F)cc1)N1CCCC2(CC(c3cccc(Cl)c3)=CO2)C1 (centres unmarked) [KUC111570N] | 3.2 | 3.8 | 5.2 | 24.2 | 42.6 |
| CCC[C@H]1[C@@H](OC(=O)NCc2ccc(OC)cc2)CC[C@@]23CCCN2C(=O)CCC[C@@H]13 [KUC112136N] | 15.7 | 22.0 | 20.8 | 28.5 | 30.5 |
| O=C(Oc1ccc([N+](=O)[O-])cc1)O[C@H]1CC[C@@]23CCCN2C(=O)CCC[C@H]3[C@H]1Cc1ccccc1 [KUC112275N] | 2.6 | 5.6 | 11.0 | 24.2 | 34.9 |
